“And” between values parts separate entries of the source, which are not always exact repeats. Equal entries are not always repeated.
What was measured:
[1] = tested on: ERK1/2, c-Jun and 4EBP1 phosphorylation in SU_MB002 cells; assay: Phosphokinome proteome profiler array and time-course Western blotting; assay type: cell-based, human
Method: To identify signaling changes accompanying DHODH inhibition in an unbiased fashion, changes in the phosphokinome of SU_MB002 cells were measured after treatment with BAY. […] Time-course Western blotting confirmed that ERK1/2 becomes phosphorylated within 24 h of BAY treatment, peaks at 48 h, and then decreases in expression at 72 h (FIG. 3I-J). […] These findings corroborated previous work that had implicated ERK1/2 silencing of mTORC1-mediated translation in activating apoptosis in cancer cells under severe metabolic stress^38. Indeed, both pharmacological inhibition or DHODH KO in G3MB-MYC induced both Go cell cycle arrest, determined via propidium iodide assessment of DNA content, (FIG. 3K, FIG. 8N) and apoptosis, determined via cleaved caspase 3 expression (FIG. 3I-J, FIG. 8M) and Annexin V staining (FIG. 3L, FIG. 8O). Such findings were also consistent with the enrichment of the hallmark apoptosis gene set in DHODH KO SU_MB002 cells (FIG. 3G). […] Pyrimidine starvation induces a metabolic stress response, which activates ERK1/2-mediated signaling, leading to suppression of mTORC1 activity, and initiation of apoptosis.
Protein lysates were isolated from approximately 500,000-1,000,000 cells. Pellets were rinsed with PBS and then lysed in RIPA buffer containing HALT™ protease inhibitor cocktail (ThermoFisher). Protein concentrations were quantified using the Bradford Assay (BioRad). Protein size was resolved via SDS-PAGE and then transferred to PVDF for immunoblotting. Rabbit polyclonal anti-DHODH (Cell Signaling Technologies; catalogue #80981), rabbit monoclonal anti-EGR1 (Cell Signaling Technologies; catalogue #4145), rabbit polyclonal anti-phospho-ERK1/2 Thr202/Tyr204 (Cell Signaling Technologies; catalogue #9101), rabbit monoclonal anti-phospho-4E-BP1 Thr37/46 (Cell Signaling Technologies; catalogue #2855) were used at a 1:1000 dilution. Mouse monoclonal anti-GAPDH (Abcam; catalogue #ab8245) was used at a 1:5000 dilution. For development, horse-radish peroxidase-conjugated secondary anti-mouse (BioRad; catalogue #1706516) and anti-rabbit antibodies (BioRad; catalogue #1706515) were used with BioRad Clarity ECL reagents. Quantification was performed by analyzing mean pixel density of each band and then normalizing to GAPDH loading control. The proteome profiler array was obtained from R&D systems (catalogue ARY003C) and performed according to manufacturing guidelines, using 400 μg cellular lysate for each sample.

[2] = tested on: de novo pyrimidine biosynthesis in brain tissue; assay: LC-MS metabolome profiling of brain tissues of treated mice; assay type: in vivo; settings: individual samples, listed as BAY
Method: In parallel to these experiments, subcutaneous flank xenografts were engrafted into two cohorts of mice, which were treated with the vehicle or R2. […] To investigate the pharmacokinetics of BAY in vivo, its concentration in plasma and brain tissues of healthy mice was directly quantified using an LC-MS approach. BAY was detected in both brains and plasma of mice undergoing treatment, however the plasma concentrations exceeded those of the brain by approximately 10-fold (FIG. 5H-I). To determine whether treatment with BAY affects de novo pyrimidine biosynthesis in vivo, changes in pyrimidine metabolism were measured in the brain in comparison to tumor tissues from the flank (FIG. 5J-K). Although BAY treatment impacted de novo pyrimidine metabolism in vivo in both brain and tumor tissues, with a similar pattern observed in vitro (FIG. 4A), the effect size was stronger in peripheral tumor tissue in comparison to brain tissue. Such findings further reflect the limited capacity for BAY to accumulate within the brain.
For metabolome profiling of tissues, ˜5 mg tissue were homogenized in 225 μL of −20° C. cold, methanol using a Bullet Blender Tissue Homogenizer (NextAdvance, Inc.) Bullet for 3 min. The homogenate was vortexed for 20 s and 750 μL of −20° C. cold methyl tertiary-butyl ether (MTBE) was added, and the mixture was vortexed for 10 s and shaken at 4° C. for 5 min. Next, 188 μL room temperature water was added and vortexed for 20 s to induce phase separation. After centrifugation for 5 min at 14,000×g, the bottom polar phase was collected and dried down. Metabolite extracts were reconstituted in LC-MS grade water/acetonitrile (50:50; v:v), vortexed for 1 min, sonicated for 15 min, and centrifuged at 16,000×g and 4° C. for 15 min to remove insoluble debris.
The LC-MS metabolomics and lipidomics analyses of the 3 NSC and 3 MB cell lines and tissues were performed on a UPLC-MS system consisting of an Orbitrap IQ-X Tribrid coupled to a Horizon Vanquish UPLC system (Thermo Fisher Scientific). The lipidomics analysis was conducted in positive-ion mode with a spray voltage of 3.5 kV while the metabolomics analysis was conducted in negative-ion mode with a spray voltage of −2.5 kV. The following source conditions were identical in both analyses and were set as follows: Sheath gas flow rate, 50 arbitrary units; Aux. gas flow rate, 10 arbitrary units; Sweep gas flow rate, 1 arbitrary unit; Ion transfer tube temp., 300° C.; Vaporizer temp., 350° C. The following acquisition parameters were used for MS1 analysis in both methods: resolution, 120,000, AGC target, 4e5. The maximum IT was set at […] for the lipidomics analysis and 200 ms for the metabolomics analysis. Data-dependent MS/MS parameters for the lipidomics analyses: resolution, 30,000; AGC target, 7.5e4; maximum IT, Dynamic (54 ms); time between Master Scans, 0.6 s; isolation window, 1.0 m/z; NCE/stepped nce, 20, 30, 40; intensity threshold, 5e4; exclude isotopes, on; dynamic exclusion, 3.0 s. Data-dependent MS/MS parameters for the metabolomics analyses: resolution. 15,000; AGC target, 7.5e4; maximum IT, Dynamic (22 ms); time between Master Scans, 0.6 s; isolation window, 1.0 m/z; NCE/stepped nce, 20, 30, 40, 50; intensity threshold, 5e4; exclude isotopes, on; dynamic exclusion, 5.0 s. To increase the total number of MS/MS spectra in the lipidomics analysis, five runs with iterative MS/MS exclusions were performed using the AcquireX function in Xcalibur (Thermo Fisher Scientific). In the metabolomics analysis, three runs with iterative MS/MS exclusions were performed using the AcquireX function. For the lipidomics analysis, chromatographic separation was achieved using a Waters Acquity UPLC CSH C18 (100 mm×2.1 mm i.d.; 1.7 μm) column injecting 2 μL. […] The column was equilibrated for 2 min at 15% B. The flow rate was set to 250 μL/min. The column temperature was maintained at 65° C. […]

[3] = SU_MB002, BAY-treated vs vehicle, 48 h
[4] = SU_MB002, time-course Western blotting
[5] = brain tissue of BAY-treated mice

CCn1c(CO)nn(-c2cc(O[C@@H](C)C(F)(F)F)c(C(=O)Nc3c(F)cccc3Cl)cc2F)c1=O [BAY2402234]
phosphorylation of ERK1/2 (T202/Y204; T185/Y187) [1, 3]: Increased phosphorylation
phosphorylation of c-Jun (S63) [1, 3]: Increased phosphorylation
time of peak ERK1/2 phosphorylation [1, 4]: 48 h
time until ERK1/2 becomes phosphorylated [1, 4]: ≤ 24 h
phosphorylation of 4EBP1 ([1]; time-course BAY treatment): decreased in a time-dependent fashion
Glutamine normalized peak intensity (Area) [2, 5]: 280983232 and 324326048 and 229454432 and 206007952
N-Carbamoyl aspartic acid normalized peak intensity (Area) [2, 5]: 1700352 and 1616900 and 1920988 and 2261730
Orotic acid normalized peak intensity (Area) [2, 5]: 3366687 and 6999989 and 4291824 and 3862066
UDP-GluNAc normalized peak intensity (Area) [2, 5]: 16715786 and 8363980 and 11501715 and 11534621
UTP normalized peak intensity (Area) [2, 5]: 22962 and 19870 and 12207 and 19991
Uridine 5′-diphosphate (UDP) normalized peak intensity (Area) [2, 5]: 133672 and 97588 and 69682 and 73337
Uridine 5′-monophosphate normalized peak intensity (Area) [2, 5]: 23218120 and 13372546 and 15616277 and 19018060
Uridine normalized peak intensity (Area) [2, 5]: 41449420 and 113184456 and 51214976 and 33664876
dihydroorotic acid normalized peak intensity (Area) [2, 5]: 1975829 and 3553594 and 1415838 and 2677330
BAY-2402234 normalized peak intensity (Area) [2]: 1338708 and 4796862 and 1717137 and 2579631
